Experimental data as given in US20240197815A1, “METHODS AND COMPOSITIONS FOR IMPROVING VISUAL FUNCTION IN OCULAR DISEASES AND DISORDERS” (ONL Therapeutics, Inc., priority 2021, published 2024).
Where “and” joins values, the source holds several entries; their conditions need not be identical. Identical values can stand only once. Ends that are not written are not given here.

Columns and labels:
Format in all cases: in vivo, human
[1] = test system: patients having macular degeneration characterized by geographic atrophy (GA); experiment: Clinical study in GA patients: best corrected visual acuity (BCVA) after single intravitreal injection; settings: all patients receiving 25 ug and 50 ug, compared to baseline BCVA
[2] = test system: patients with retinal detachment; experiment: Clinical study in retinal detachment patients: BCVA after single intravitreal injection followed by vitrectomy; settings: for summary statistics for all patients, mean (of the BCVA logMAR values of Table 2): all doses 25-200 ug; for BCVA logMAR study eye / BCVA Snellen study eye: individual patients
Protocol: (§1) The primary objective was to determine the Maximum Tolerated Dose (MTD) of a peptide an amino acid sequence […] and the structure of Formula III (ONL1204) and select doses for further clinical studies. During the study, ocular fluid samples were also collected at the time of study drug injection and at the time of vitrectomy. These samples were used for pharmacokinetic and pharmacodynamic analyses.
(§2) Patients were enrolled in ascending dose groups. […] Safety visits were conducted one day post-injection and as deemed necessary by the examining Investigator (at least 1 visit every 3 days) until Visit 3. At Visit 3 (3+ days post-injection, in accordance with standard of care) patients underwent surgical repair of their retinal detachment with vitrectomy (with or without scleral buckling) and gas or oil tamponade. At the time of surgery, an undiluted vitreous sample was collected for pharmacokinetic and pharmacodynamics analyses, and an aqueous sample was collected for pharmacodynamic analysis. Additional safety visits were targeted for and generally conducted one day post-surgery, 7 days (±3 days) post-surgery, 14 (+4 days) days post-surgery, and Weeks 6, 9, 12 (±7 days each), and Week 24 (+14 days; study exit).
Therefore, a volume of 0.05 or 0.1 mL was injected into the study eye. Patient participation was approximately 24 weeks (6 months): a single injection treatment and 24 weeks of follow-up.

[3] = test system: patients with retinal detachment; experiment: Clinical study in retinal detachment patients: safety, adverse event reporting
Protocol: as §1, §2
Planned determinations of dose limiting toxicity included consideration of the following events: • 1.

ICAM1 = experiment: Change in cytokine level in ocular fluid samples from administration to surgery
Protocol: as §1, §2

IL18 = experiment: as above
Protocol: as §1, §2

IL1RA = experiment: as above
Protocol: as §1, §2

MCP1 = experiment: as above
Protocol: as §1, §2

[4] = 8 patients, 25 ug and 50 ug cohorts
[5] = dose 25 ug (Table 1), individual patients
[6] = dose 50 ug (Table 1), individual patients
[7] = dose 100 ug (Table 1), individual patients
[8] = dose 200 ug (Table 1), individual patient

HHIYLGAVNYIY-NH2 [ONL1204]
visual outcomes (e.g., visual acuity) [1]: improvement in visual outcomes
summary statistics for all patients, mean (of the BCVA logMAR values of Table 2) ([2]; Week 6, n 14): 0.65
summary statistics for all patients, mean (of the BCVA logMAR values of Table 2) ([2]; Week 9, n 13): 0.78
summary statistics for all patients, mean (of the BCVA logMAR values of Table 2) ([2]; Week 24, n 13): 0.56
visual outcomes ([2]; all patients receiving ONL1204, also with greater than 10 days of central vision loss, 3 to 7 days from administration to surgery, range of detachment heights and extents): improved visual outcomes were observed for all patients
visual outcomes (e.g., visual acuity) ([2]; retinal detachment, all patients receiving 25 ug and 50 ug, intravitreal injection then surgery): improvement in visual outcomes
BCVA logMAR study eye ([2]; week 6, dose 25 ug (Table 1)): 0.34 logMAR and 0.18 logMAR and 0.82 logMAR (2×)
BCVA Snellen study eye ([2]; week 6, dose 25 ug): 20/40 and 20/32 and 20/125 (2×)
BCVA logMAR study eye ([2]; week 6, dose 50 ug (Table 1)): 0.46 logMAR and 0.38 logMAR (2×) and 0.52 logMAR
BCVA Snellen study eye ([2]; week 6, dose 50 ug): 20/50 (2×) and 20/80
BCVA logMAR study eye ([2]; week 6, dose 100 ug (Table 1)): 0.8 logMAR and 0.7 logMAR and 1 logMAR and 1.6 logMAR
BCVA Snellen study eye ([2]; week 6, dose 100 ug): 20/125 and 20/100 and 20/200 and 20/800
BCVA logMAR study eye ([2]; week 6, dose 200 ug (Table 1)): 0.4 logMAR and 0.7 logMAR
BCVA Snellen study eye ([2]; week 6, dose 200 ug): 20/50 and 20/100
BCVA logMAR study eye ([2]; week 9, dose 25 ug (Table 1)): 0.14 logMAR and 0.12 logMAR and 0.64 logMAR and 0.78 logMAR
BCVA Snellen study eye ([2]; week 9, dose 25 ug): 20/25 (2×) and 20/100 and 20/125
BCVA logMAR study eye ([2]; week 9, dose 50 ug (Table 1)): 0.6 logMAR and 0.56 logMAR and 0.34 logMAR
BCVA Snellen study eye ([2]; week 9, dose 50 ug): 20/80 (2×) and 20/50
BCVA Snellen study eye ([2]; week 9, dose 100 ug, HM = hand motion): 20/200 and 20/80 and 20/400
BCVA logMAR study eye ([2]; week 9, dose 200 ug (Table 1)): 0.36 logMAR and 0.6 logMAR
BCVA Snellen study eye ([2]; week 9, dose 200 ug): 20/40 and 20/80
BCVA logMAR study eye ([2]; week 24, dose 25 ug (Table 1)): 0.5 logMAR and 0.2 logMAR and 0.68 logMAR and 0.7 logMAR
BCVA Snellen study eye ([2]; week 24, dose 25 ug): 20/60 and 20/32 and 20/100 (2×)
BCVA logMAR study eye ([2]; week 24, dose 50 ug (Table 1)): 0.76 logMAR and 0.2 logMAR and 0.64 logMAR and 0.34 logMAR
BCVA Snellen study eye ([2]; week 24, dose 50 ug): 20/125 and 20/32 and 20/80 and 20/50
BCVA logMAR study eye ([2]; week 24, dose 100 ug (Table 1)): 0.5 logMAR and 0.7 logMAR and 1.3 logMAR and 0.6 logMAR
BCVA Snellen study eye ([2]; week 24, dose 100 ug): 20/63 and 20/100 and 20/400 and 20/80
BCVA logMAR study eye ([2]; week 24, dose 200 ug (Table 1)): 0.2 logMAR
BCVA Snellen study eye ([2]; week 24, dose 200 ug): 20/32
patients experiencing adverse events ([3]; 4 patients receiving 25 ug and 4 patients receiving 50 ug): 7 out of 8
severity and relatedness of adverse events [3, 4]: Most were mild, and study procedure or surgery related
total adverse events [3, 4]: 20 adverse events
change in ICAM level from ONL1204 administration to surgery, mean (ICAM1; all patients of Table 7): mean decrease
ICAM1 Percent Change (%) from time of administering ONL1204 to surgery (ICAM1; [5]): −82.4% and −42.7% and −86.2%
ICAM1 Percent Change (%) from time of administering ONL1204 to surgery (ICAM1; [6]): −100% and 0% and 64.0%
ICAM1 Percent Change (%) from time of administering ONL1204 to surgery (ICAM1; [7]): −43.9% and 24.9% and 22.7%
ICAM1 Percent Change (%) from time of administering ONL1204 to surgery (ICAM1; [8]): 0%
change in IL18 level from ONL1204 administration to surgery, mean (IL18; all patients of Table 7): mean decrease
IL18 Percent Change (%) from time of administering ONL1204 to surgery (IL18; [5]): −60.5% and −22.5% and −50.8%
IL18 Percent Change (%) from time of administering ONL1204 to surgery (IL18; [6]): −100% and 0% (2×)
IL18 Percent Change (%) from time of administering ONL1204 to surgery (IL18; [7]): −33.7% and 0% and 66.0%
IL18 Percent Change (%) from time of administering ONL1204 to surgery (IL18; [8]): 0%
change in IL1RA level from ONL1204 administration to surgery, mean (IL1RA; all patients of Table 7): mean decrease
IL1RA Percent Change (%) from time of administering ONL1204 to surgery (IL1RA; [5]): −51.0% and −57.4% and −99.3%
IL1RA Percent Change (%) from time of administering ONL1204 to surgery (IL1RA; [6]): −94.4% and −88.3% and −60.0%
IL1RA Percent Change (%) from time of administering ONL1204 to surgery (IL1RA; [7]): 8.5% and −46.1% and −65.2%
IL1RA Percent Change (%) from time of administering ONL1204 to surgery (IL1RA; [8]): −26.3%
change in MCP1 level from ONL1204 administration to surgery, mean (MCP1; all patients of Table 7): mean decrease
MCP1 Percent Change (%) from time of administering ONL1204 to surgery (MCP1; [5]): −41.4% and −6.02% and −35.9%
MCP1 Percent Change (%) from time of administering ONL1204 to surgery (MCP1; [6]): −48.4% and 11.6% and −3.12%
MCP1 Percent Change (%) from time of administering ONL1204 to surgery (MCP1; [7]): −9.5% and 78.5% and 500%
MCP1 Percent Change (%) from time of administering ONL1204 to surgery (MCP1; [8]): −2.4%
